Results on 17 compounds are retold here after patent US20230118688A1, “1H-PYRAZOLO[4,3-d]PYRIMIDINE COMPOUNDS AS TOLL-LIKE RECEPTOR 7 (TLR7) AGONISTS” (BRISTOL-MYERS SQUIBB COMPANY, priority 2020, published 2023).

pEC50: −log10 of the molar value.

By pEC50 is commonly meant the negative decadic logarithm of the EC50, by convention in mol/L.

Test [1] deals with T1, human TLR7 (Homo sapiens, UniProt Q9NYK1).
T1 construct: host or cells: HEK-Blue TLR7 cells (engineered human embryonic kidney cells)
T1 sequence (Q9NYK1 27-1049): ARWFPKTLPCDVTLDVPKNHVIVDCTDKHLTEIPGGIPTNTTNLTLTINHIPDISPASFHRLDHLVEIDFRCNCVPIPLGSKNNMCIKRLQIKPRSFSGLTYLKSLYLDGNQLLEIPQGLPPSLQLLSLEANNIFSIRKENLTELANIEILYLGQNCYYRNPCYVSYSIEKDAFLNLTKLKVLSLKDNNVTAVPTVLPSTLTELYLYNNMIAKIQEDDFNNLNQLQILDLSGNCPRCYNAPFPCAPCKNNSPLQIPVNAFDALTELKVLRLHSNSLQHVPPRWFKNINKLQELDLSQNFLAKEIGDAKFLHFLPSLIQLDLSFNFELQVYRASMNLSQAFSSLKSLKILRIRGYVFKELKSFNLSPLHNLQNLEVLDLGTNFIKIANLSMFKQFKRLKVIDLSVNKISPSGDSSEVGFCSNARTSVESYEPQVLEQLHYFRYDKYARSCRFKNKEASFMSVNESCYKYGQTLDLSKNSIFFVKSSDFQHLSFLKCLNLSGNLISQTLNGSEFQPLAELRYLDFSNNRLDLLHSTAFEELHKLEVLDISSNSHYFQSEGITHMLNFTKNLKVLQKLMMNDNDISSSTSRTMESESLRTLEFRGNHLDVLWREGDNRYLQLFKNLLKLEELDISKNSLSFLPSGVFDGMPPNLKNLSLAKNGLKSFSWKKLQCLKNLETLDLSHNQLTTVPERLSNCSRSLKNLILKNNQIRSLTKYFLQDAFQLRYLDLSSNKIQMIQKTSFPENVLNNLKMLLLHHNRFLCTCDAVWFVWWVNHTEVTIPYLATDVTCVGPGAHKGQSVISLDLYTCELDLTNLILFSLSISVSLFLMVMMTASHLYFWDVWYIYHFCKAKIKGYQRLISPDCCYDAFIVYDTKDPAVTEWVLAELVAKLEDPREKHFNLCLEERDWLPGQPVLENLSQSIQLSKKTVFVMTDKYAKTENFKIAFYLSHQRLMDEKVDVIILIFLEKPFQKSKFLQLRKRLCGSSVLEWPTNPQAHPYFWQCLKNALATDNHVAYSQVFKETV
Nature of the test: Human TLR7 agonist activity reporter assay (HEK-Blue TLR7 cells, SEAP reporter). The class given is cell-based. The following applies: 18 h treatment, average where assay repeated, Table A1, read-out: hTLR7 Agonism EC50. The procedure:
This procedure describes a method for assaying human TLR7 (hTLR7) agonist activity of the compounds disclosed in this specification.
HEK-Blue™ TLR7 cells were added to each well of a 384-well tissue-culture plate (15,000 cells per well) and incubated 16-18 h at 37° C., 5% CO2. Compounds (100 nl) were dispensed into wells containing the HEK-Blue™ TLR cells and the treated cells were incubated at 37° C., 5% CO2. After 18 h treatment ten microliters of freshly-prepared Quanti-Blue™ reagent (Invivogen) was added to each well, incubated for 30 min (37° C., 5% CO2) and SEAP levels measured using an Envision plate reader (OD=620 nm). The half maximal effective concentration values (EC50; compound concentration which induced a response halfway between the assay baseline and maximum) were calculated.

For test [2], the system named is CD69. The experiment in a line: Induction of CD69 in human whole blood. Format: cell-based. The following applies: 17 h, CD69 surface staining, 100% set to 1 uM resiquimod, average where assay repeated, Table A1, read-out: hWB CD69 EC50. How it is done:
The induction of Type I interferon (IFN) MX-1 genes and the B-cell activation marker CD69 are downstream events that occur upon activation of the TLR7 pathway. The following is a human whole blood assay that measures their induction in response to a TLR7 agonist.
Heparinized human whole blood was harvested from human subjects and treated with test TLR7 agonist compounds at 1 mM. The blood was diluted with RPMI 1640 media and Echo was used to predot 10 nL per well giving a final concentration of 1 uM (10 nL in 10 uL of blood). After mixing on a shaker for 30 sec, the plates were covered and placed in a 37° C. chamber for o/n=17 hrs. Fixing/lysis buffer was prepared (5×->1× in H2O, warm at 37° C.; Cat #BD 558049) and kept the perm buffer (on ice) for later use.
For surface markers staining (CD69): prepared surface Abs: 0.045 ul hCD14-FITC (ThermoFisher Cat #MHCD1401)+0.6 ul hCD19-ef450 (ThermoFisher Cat #48-0198-42)+1.5 ul hCD69-PE (cat #BD555531)+0.855 ul FACS buffer. Added 3 ul/well, spin1000 rpm for 1 min and mixed on shaker for 30 sec, put on ice for 30 mins. Stop stimulation after 30 minutes with 70 uL of prewarmed 1× fix/lysis buffer and use Feliex mate to resuspend (15 times, change tips for each plate) and incubate at 37C for 10 minutes.
Centrifuge at 2000 rpm for 5 minutes aspirate with HCS plate washer, mix on shaker for 30 sec and then wash with 70 uL in dPBS and pelleted 2×s (2000 rpm for 5 min) and 50 ul wash in FACS buffer pelleted 1×s(2000 rpm for 5 min). Mix on shaker for 30 sec. For Intracellular markers staining (MX-1): Add 50 ul of BD Perm buffer III and mix on shaker for 30 sec. Incubate on ice for 30 minutes (in the dark). Wash with 50 uL of FACS buffer 2× (spin @2300 rpm×5 min after perm) followed by mixing on shaker for 30 sec. Resuspended in 20 ul of FACS buffer containing MX1 antibody ( ) (4812)-Alexa 647: Novus Biologicals #NBP2-43704AF647) 20 ul FACS bf+0.8 ul hlgG+0.04 ul MX-1. Spin 1000 rpm for 1 min, mix on shaker for 30se and the samples were incubated at RT in the dark for 45 minutes followed by washing 2×FACS buffer (spin @2300 rpm×5 min after perm). Resuspend 20 ul (35 uL total per well) of FACS buffer and cover with foil and place in 4° C. to read the following day. Plates were read on iQuePlus. The results were loaded into toolset and IC50 curves are generated in curve master. The y-axis 100% is set to 1 uM of resiquimod.

As to `CCCCNc1nc(N)nc2cnn(Cc3cc(CN4CCCN(C)CC4)ccc3OC)c12` [Compound 131, N7-butyl-1-({2-methoxy-5-[(4-methyl-1,4-diazepan-1-yl)methyl]phenyl}methyl)-1H-pyrazolo[4,3-d] pyrimidine-5,7-diamine], the pEC50 is 6.95 in test [1] and 7.07 in test [2].

In the case of `CCCCNc1nc(N)nc2cnn(Cc3cc(CNC)ccc3OC)c12` [Compound 132, N7-butyl-1-(2-methoxy-5-((methylamino)methyl)benzyl)-1H-pyrazolo[4,3-d]pyrimidine-5,7-diamine], the pEC50 in test [1] is 6.73; in test [2], 7.96.

Take `CCCCNc1nc(N)nc2cnn(Cc3cc(CN(C)CCN(C)C)ccc3OC)c12` [Compound 133, N7-butyl-1-{[5-({[2-(dimethylamino)ethyl](methyl)-amino}methyl)-2-methoxy-phenyl]methyl}-1H-pyrazolo [4,3-d]pyrimidine-5,7-diamine]: the pEC50 in test [1] is 6.75; in test [2] it was 7.77.

As to `CCCCNc1nc(N)nc2cnn(Cc3cc(CN4CCNCC4)ccc3OC)c12` [Compound 134, N7-butyl-1-({2-methoxy-5-[(piperazin-1-yl)methyl]-phenyl}methyl)-1H-pyrazolo[4,3-d]pyrimidine-5,7-diamine], the pEC50 in test [1] was 6.70; in test [2], 7.20.

`CCCCNc1nc(N)nc2cnn(Cc3cc(CNC(=O)CN(C)C)ccc3OC)c12` [Compound 136, N-[(3-{[5-amino-7-(butyl-amino)-1H-pyrazolo[4,3-d]pyrimidin-1-yl]methyl}-4-methoxyphenyl)methyl]-2-(dimethylamino)acetamide]: the pEC50 is 7.29 in test [1] and 7.72 in test [2].

Consider `CCCCNc1nc(N)nc2cnn(Cc3cc(CN4CC(N(C)C)C4)ccc3OC)c12` [Compound 137, N7-butyl-1-[(5-{[3-(dime-thylamino)azetidin-1-yl]-methyl}-2-methoxyphenyl)methyl]-1H-pyrazolo-[4,3-d]pyrimidine-5,7-diamine], for which the pEC50 is 6.94 in test [1] and 7.55 in test [2].

As to `CCCCNc1nc(N)nc2cnn(Cc3cc(CN4CCN(C(=O)C5CCC5)CC4)ccc3OC)c12` [Compound 138, N7-butyl-1-({5-[(4-cyclo-butanecarbonylpiperazin-1-yl)methyl]-2-methoxy-phenyl}methyl)-1H-pyrazolo-[4,3-d]pyrimidine-5,7-diamine], the negative-log EC50 (pEC50) is 5.68 in test [1] and at most 6.00 in test [2].

On to `CCCCNc1nc(N)nc2cnn(Cc3cc(COC)ccc3OC)c12` [Compound 139, N7-butyl-1-{[2-methoxy-5-(methoxymethyl)phenyl]-methyl}-1H-pyrazolo[4,3-d]pyrimidine-5,7-diamine], for which the results for the pEC50 in test [1] and in test [2] were 6.48 and 6.05, respectively.

`CCCCNc1nc(N)nc2cnn(Cc3cc(CO)ccc3OC)c12` [Compound 140, (3-((5-amino-7-(butylamino)-1H-pyrazolo[4,3-d]pyrimidin-1-yl)methyl)-4-methoxyphenyl)methanol]: the pEC50 in test [1] was 7.56; in test [2] it was 6.87.

Turning to `CCCCNc1nc(N)nc2cnn(Cc3cc(COC4COC4)ccc3OC)c12` [Compound 141, N7-butyl-1-({2-methoxy-5-[(oxetan-3-yloxy)me-thyl]phenyl}methyl)-1H-pyrazolo[4,3-d]pyrimidine-5,7-diamine], the pEC50 is 6.30 in test [1] and 6.08 in test [2].

As to `CCCCNc1nc(N)nc2cnn(Cc3cc(COCCCO)ccc3OC)c12` [Compound 143, 3-[(3-{[5-amino-7-(butyl-amino)-1H-pyrazolo[4,3-d]pyrimidin-1-yl]methyl}-4-methoxyphenyl)-methoxy]propan-1-ol], the pEC50 in test [1] was 6.37; in test [2] it was 6.14.

Regarding `CCCCNc1nc(N)nc2cnn(Cc3cc(COCCC(C)(C)O)ccc3OC)c12` [Compound 144, 4-[(3-{[5-amino-7-(butyl-amino)-1H-pyrazolo[4,3-d]pyrimidin-1-yl]methyl}-4-methoxyphenyl)methoxy]-2-methylbutan-2-ol], the pEC50 is 6.25 in test [1] and at most 6.00 in test [2].

With `CCCCNc1nc(N)nc2cnn(Cc3cc(C#N)ccc3OC)c12` [Compound 145, 3-{[5-amino-7-(butyl-amino)-1H-pyrazolo[4,3-d]pyrimidin-1-yl]methyl}-4-methoxybenzonitrile], the values for the pEC50 in test [1] and in test [2] were 6.40 and 6.03, respectively.

For the compound `CCCCNc1nc(N)nc2cnn(Cc3cc(CN(C)C(=O)CCOC)ccc3OC)c12` [Compound 146, N-[(3-{[5-amino-7-(butyl-amino)-1H-pyrazolo[4,3-d]pyrimidin-1-yl]methyl}-4-methoxyphenyl)methyl]-3-methoxy-N-methylpropanamide], the pEC50 in test [1] is 6.30; in test [2], at most 6.00.

Turning to `CCCCNc1nc(N)nc2cnn(Cc3cc(CN(C)C(=O)CCO)ccc3OC)c12` [Compound 147, N-[(3-{[5-amino-7-(butyl-amino)-1H-pyrazolo[4,3-d]pyrimidin-1-yl]methyl}-4-methoxyphenyl)methyl]-3-hydroxy-N-methylpropanamide], the figures for the pEC50 in test [1] and in test [2] were 6.77 and 6.34, respectively.

For the compound `CCCCNc1nc(N)nc2cnn(Cc3cc(CN(C)C(=O)CC(C)(C)O)ccc3OC)c12` [Compound 148, N-[(3-{[5-amino-7-(butyl-amino)-1H-pyrazolo[4,3-d]pyrimidin-1-yl]methyl}-4-methoxyphenyl)methyl]-3-hydroxy-N,3-dimethyl-butanamide], the pEC50 is 6.18 in test [1] and at most 6.00 in test [2].

For `COc1ccc(CN2CC(OC)C2)cc1Cn1ncc2nc(N)nc(NCC3CC4(CC4)C3)c21` [Compound 149, 1-({2-methoxy-5-[(3-methoxyazetidin-1-yl)methyl]-phenyl}methyl)-N7-({spiro-[2.3]hexan-5-yl}methyl)-1H-pyrazolo[4,3-d]pyrimidine-5,7-diamine], the pEC50 was 6.57 in test [1] and 6.28 in test [2].
